Results on 8 molecules are retold here after ChEMBL document CHEMBL2073971, “Organic anion-transporting polypeptides mediate transport of opioid peptides across blood-brain barrier” (J Pharmacol Exp Ther, 2000).

The target of data set [1] is T1, Solute carrier organic anion transporter family member 1A2 (Homo sapiens, UniProt P46721).
T1 sequence (P46721 whole entry): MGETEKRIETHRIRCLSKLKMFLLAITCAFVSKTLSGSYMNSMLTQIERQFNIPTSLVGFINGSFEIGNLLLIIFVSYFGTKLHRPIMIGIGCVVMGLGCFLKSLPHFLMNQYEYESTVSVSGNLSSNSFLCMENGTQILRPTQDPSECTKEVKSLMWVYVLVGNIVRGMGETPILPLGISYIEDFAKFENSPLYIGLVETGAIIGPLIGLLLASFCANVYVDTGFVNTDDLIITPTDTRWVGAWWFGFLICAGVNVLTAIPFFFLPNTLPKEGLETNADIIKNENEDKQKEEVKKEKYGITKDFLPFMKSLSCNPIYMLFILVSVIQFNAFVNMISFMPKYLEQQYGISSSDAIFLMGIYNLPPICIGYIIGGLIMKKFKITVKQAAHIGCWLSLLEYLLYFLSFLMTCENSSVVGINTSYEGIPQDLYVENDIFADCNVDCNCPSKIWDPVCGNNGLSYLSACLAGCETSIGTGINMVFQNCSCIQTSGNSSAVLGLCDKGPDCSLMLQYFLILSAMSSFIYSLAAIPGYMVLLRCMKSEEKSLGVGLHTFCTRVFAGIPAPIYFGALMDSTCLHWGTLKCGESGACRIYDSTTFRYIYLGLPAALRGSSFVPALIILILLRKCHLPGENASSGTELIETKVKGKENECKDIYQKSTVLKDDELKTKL
As to the kind of experiment: TP_TRANSPORTER: inhibition of Deltorphin II uptake (Deltorphin II: 50 uM, Naloxone: 1500 uM) in Xenopus laevis oocytes. Particulars: oocyte. The format is functional, cell-based.

For data set [2], the target named is T1, Solute carrier organic anion transporter family member 1A2. As to the kind of experiment: TP_TRANSPORTER: inhibition of Deltorphin II uptake (Deltorphin II: 50 uM, DAMGO: 200 uM) in Xenopus laevis oocytes. The format is functional, cell-based. Particulars: oocyte.
For data set [3], the target named is T2, Solute carrier organic anion transporter family member 1A4 (Rattus norvegicus, UniProt O35913).
T2 sequence (O35913 whole entry): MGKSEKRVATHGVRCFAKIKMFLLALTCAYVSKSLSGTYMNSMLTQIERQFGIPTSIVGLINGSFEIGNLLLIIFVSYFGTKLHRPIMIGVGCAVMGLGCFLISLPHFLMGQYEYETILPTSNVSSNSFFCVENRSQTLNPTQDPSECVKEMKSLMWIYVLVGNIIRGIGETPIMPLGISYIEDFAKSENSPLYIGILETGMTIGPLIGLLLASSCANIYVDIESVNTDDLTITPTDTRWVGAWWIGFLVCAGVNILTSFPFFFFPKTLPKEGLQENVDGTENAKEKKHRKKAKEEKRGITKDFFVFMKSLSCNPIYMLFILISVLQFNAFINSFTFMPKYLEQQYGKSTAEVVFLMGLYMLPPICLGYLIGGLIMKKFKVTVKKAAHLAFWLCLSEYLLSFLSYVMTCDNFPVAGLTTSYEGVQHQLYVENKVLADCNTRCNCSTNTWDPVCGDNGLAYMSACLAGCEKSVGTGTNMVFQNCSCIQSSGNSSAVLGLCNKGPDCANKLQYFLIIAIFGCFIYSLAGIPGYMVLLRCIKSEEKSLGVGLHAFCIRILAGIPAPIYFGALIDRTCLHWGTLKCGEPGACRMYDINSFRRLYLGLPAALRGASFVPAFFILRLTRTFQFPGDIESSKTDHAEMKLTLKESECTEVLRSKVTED
As to the kind of experiment: (§1) TP_TRANSPORTER: uptake in Xenopus laevis oocytes. The format is functional, cell-based. Particulars: oocyte.

Data set [4] deals with T3, Solute carrier organic anion transporter family member 1A2 (OATP1A2) (Homo sapiens, UniProt P46721).
T3 sequence (P46721 whole entry): T1 sequence (P46721 whole entry)
The description is as §1. Particulars: Xenopus laevis oocytes expressing the transporter. The format is functional, cell-based, Oocyte.

Data set [5] concerns the target T1, Solute carrier organic anion transporter family member 1A2. As to the kind of experiment: TP_TRANSPORTER: inhibition of Deltorphin II uptake (Deltorphin II: 50 uM, DPDPE: 500 uM) in Xenopus laevis oocytes. The class given is functional, cell-based. Particulars: oocyte.
For data set [6] the target is unchanged. As to the kind of experiment: TP_TRANSPORTER: inhibition of Deltorphin II uptake (Deltorphin II: 50 uM, Naltrindole: 1500 uM) in Xenopus laevis oocytes. The class given is functional, cell-based. Particulars: oocyte.
For data set [7] the target is unchanged. As to the kind of experiment: TP_TRANSPORTER: inhibition of Deltorphin II uptake (Deltorphin II: 50 uM, E1S: 150 uM) in Xenopus laevis oocytes. The class given is functional, cell-based. Particulars: oocyte.
Substrate in data set [8]: CC1(C)SSC(C)(C)[C@@H](NC(=O)[C@@H](N)Cc2ccc(O)cc2)C(=O)NCC(=O)N[C@@H](Cc2ccccc2)C(=O)N[C@H]1C(=O)O
Described as §1. The class given is functional, cell-based, Oocyte.

Substrate in data set [9]: CC(C)[C@H](NC(=O)[C@H](CCC(=O)O)NC(=O)[C@H](Cc1ccccc1)NC(=O)[C@@H](C)NC(=O)[C@@H](N)Cc1ccc(O)cc1)C(=O)N[C@H](C(=O)NCC(N)=O)C(C)C
The description is as §1. The format is functional, cell-based, Oocyte.

Take `C=CCN1CC[C@]23c4c5ccc(O)c4O[C@H]2C(=O)CC[C@@]3(O)[C@H]1C5` [NALOXONE]: the Activity result in data set [1] was “inhibitor [(at a rough estimate) 20 % of control]”. `C[C@@H](NC(=O)[C@@H](N)Cc1ccc(O)cc1)C(=O)NCC(=O)N(C)[C@@H](Cc1ccccc1)C(=O)NCCO` [DAMGO]: the Activity result in data set [2] was “inhibitor [(at a rough estimate) 50 % of control]”. Take `CC(C)[C@H](NC(=O)[C@H](CCC(=O)O)NC(=O)[C@H](Cc1ccccc1)NC(=O)[C@@H](C)NC(=O)[C@@H](N)Cc1ccc(O)cc1)C(=O)N[C@H](C(=O)NCC(N)=O)C(C)C` [DELTORPHIN II]: the Activity result in data set [3] is “is not a substrate [-]”. Also, the Km in data set [4] was determined as 330 µM. On to `CC1(C)SSC(C)(C)[C@@H](NC(=O)[C@@H](N)Cc2ccc(O)cc2)C(=O)NCC(=O)N[C@@H](Cc2ccccc2)C(=O)N[C@H]1C(=O)O`, for which, in data set [5], the Activity entry is “inhibitor [(at a rough estimate) 50 % of control]”. Further, in data set [4], the Km was 202 µM. For the molecule `Oc1ccc2c3c1O[C@H]1c4[nH]c5ccccc5c4C[C@@]4(O)[C@@H](C2)N(CC2CC2)CC[C@]314` [NALTRINDOLE], in [6], the Activity entry is “inhibitor [(at a rough estimate) 10 % of control]”. For `C[C@]12CC[C@@H]3c4ccc(OS(=O)(=O)O)cc4CC[C@H]3[C@@H]1CCC2=O` [ESTRONE SULFURIC ACID], in data set [7], the Activity entry was “inhibitor [(at a rough estimate) 10 % of control]”.

B1: Solute carrier organic anion transporter family member 1A4 (Rattus norvegicus) (protein)
chain: T2 sequence (O35913 whole entry)
Turning to B1, the Km in data set [8] came out at 19 µM.

B2: Solute carrier organic anion transporter family member 1A1 (Rattus norvegicus) (protein)
chain: MEETEKKIATQEGRLFSKMKVFLLSLTCACLTKSLSGVYMNSMLTQIERQFDISTSVAGLINGSFEIGNLFFIVFVSYFGTKLHRPVVIGIGCVIMGLGCLLMSLPHFFMGRYEYETTISPTGNLSSNSFLCMENRTQTLKPTQDPAECVKEMKSLMWICVMVGNIIRGIGETPIVPLGISYIEDFAKSENSPLYIGILEMGKVAGPIFGLLLGSYCAQIYVDIGSVNTDDLTITPSDTRWVGAWWIGFLVCAGVNILTSIPFFFLPKALPKKGQQENVAVTKDGKVEKYGGQAREENLGITKDFLTFMKRLFCNPIYMLFILTSVLQVNGFINKFTFLPKYLEQQYGKSTAEAIFLIGVYSLPPICLGYLIGGFIMKKFKITVKKAAYLAFCLSVFEYLLFLCHFMLTCDNAAVAGLTTSYKGVQHQLHVESKVLADCNTRCSCSTNTWDPVCGDNGVAYMSACLAGCKKFVGTGTNMVFQDCSCIQSLGNSSAVLGLCKKGPECANRLQYFLILTIIISFIYSLTAIPGYMVFLRCVKSEEKSLGVGLHTFCIRVFAGIPAPVYFGALIDRTCLHWGTLKCGQRGACRMYDINSFRHIYLGLPIALRGSSYLPAFFILILMRKFQFPGDIDSSATDHTEMMLGEKESEHTDVHGSPQVENDGELKTKL
For B2, the Km in data set [8] turned out to be 48 µM; in data set [9] it was 137 µM.

As usually defined, the Km is the substrate concentration at which the rate is half of its maximum.
